Results from PMC10747112, “Triphenylphosphine Derivatives of Allylbenzenes Express Antitumor and Adjuvant Activity When Solubilized with Cyclodextrin-Based Formulations” (Pharmaceuticals, 2023).

Assays:
[1] = Dissociation constants of complexes with γ-CD by FTIR spectroscopy (Hill fit); format: physicochemical; conditions: complex formed in molar excess of X approximately 1.2–1.4, PBS
Source text: FTIR spectroscopy provides valuable data on the interaction of molecules, including those applicable to characterize the non-covalent complexes of apiol-PPh3 (and analogues) with cyclodextrins and heparin. In the FTIR spectra of apiol-PPh3 and analogues (Figure 3a), one characteristic is the bands of valence oscillations of the bonds C=C of the aromatic system (1450–1650 cm^−1) overlapping with the bands of deformation oscillations C-H (1400–1500 cm^−1). The intensity of these peaks increases with the formation of non-covalent complexes of apiol-PPh3 and its analogues with cyclodextrins and heparin due to the transition of the solid phase into solution. Linear fitting of the intensity of peaks in the FTIR spectra on the cyclodextrin or heparin concentration (Section 2.3) in Hill coordinates allows determining the dissociation constants of the complexes (Table 2). The interactions of triphenylphosphine derivatives of allylbenzenes with γ-CD is rather weak (Kd 10 mM values). In the case of M-β-CD, the dissociation constants reach millimolar values, which is sufficient to obtain soluble forms of adjuvants (Table 2). Thus, the β-cyclodextrin derivatives are more suitable in terms of size for inclusion of the adjuvants studied. […] Comparing the values of the dissociation constants of alkylbenzenes and PPh3-derivatives complexes with cyclodextrins, we observed that these Kd values are close, which means that it is the allylbenzene-fragment (of apiol-PPh3) that plunges into the cyclodextrin cavity, and the triphenylphosphine radical looks outward (Figure 3b), which would provide the implementation of mitochondrial targeting of the developed formulations.
Non-covalent complexes of apiol, apiol-PPh3 and analogues with cyclodextrins (with different molar ratios) and heparin (15 kDa, 1:1 w/w) were obtained by adding solutions of cyclodextrins (100 mg/mL) or heparin (20 mg/mL) in PBS to apiol or apiol-PPh3 (or analogues) samples (2–3 mg). The excess of CDs or heparin was varied from 0.04 to 10 mol/mol. Then, mixtures were incubated for 1 h at 40 °C. Cyclodextrin or heparin are necessary for the solubilization of extremely poorly soluble compounds.
The ATR-FTIR spectra of samples (Section 3.3) were acquired using a Bruker Tensor 27 spectrometer equipped with a liquid N2 cooled MCT (mercury cadmium telluride) detector. Samples were placed in a thermostatic cell BioATR-II with ZnSe ATR element (Bruker, Germany). FTIR spectra were recorded from 850 to 4000 cm^−1 with 1 cm^−1 spectral resolution; 50 scans were accumulated and averaged. Spectral data were processed using the Bruker software system Opus 8.2.28 (Bruker, Germany). The spectrum of cyclodextrin or heparin in the corresponding concentration was subtracted from the spectra of the complexes. […]

A549 cells [2] = assay: MTT assay, cytotoxic activity against A549; format: cell-based; conditions: Homo sapiens, A549; X in M-β-CD 1:5 mol/mol; MTT; read-out: −lg (IC50) of X in M-β-CD against A549 (converted)
Procedure: Concentrations of the active substance varied from 10^−2 to 10^−4 M. For MTT assay and biological experiments, substances in the concentration range from 10^−3 to 10^−9 M were studied by the dilution of initial ones in a cell growth medium or buffer.
(§1) Adenocarcinomic human alveolar basal epithelial cells A549 cell lines (Manassas, VA, USA) were cultured in RPMI-1640 medium, linear cells of the embryonic kidney human epithelium (HEK293T) were grown in DMEM medium as described earlier. Cell lines were obtained from Lomonosov Moscow State University Depository of Live Systems Collection and Laboratory of Medical Biotechnology, Institute of Biomedical Chemistry (Moscow, Russia).
(§2) The cytotoxic activity of paclitaxel, Apiol-PPh3 and analogues was determined using an MTT test. Paclitaxel-adjuvant synergism coefficients (SC) were calculated as CV (paclitaxel) × CV (alone adjuvant)/CV (combo paclitaxel + adjuvant), where CV represents the cell viability. The synergy coefficient can be interpreted as strong synergy (SC > 2), synergy (2 > SC > 1.2), indifference/additivity (1.2 > SC > 0.8), antagonism (0.8 > SC > 0.5), and inhibition (SC < 0.5), as described earlier.

A549 cells [3] = assay: MTT assay, synergy of adjuvants with paclitaxel against A549; format: cell-based, human; conditions: X − M-β-CD, SC = CV(paclitaxel) × CV(adjuvant)/CV(combo)
Source text: Apparently PPh3 derivatives effectively penetrate into cancer cells along a potential gradient, inhibit efflux proteins and mitochondrial enzymes, causing the apoptosis of cancer cells, with IC50 values being lower by two orders of magnitude than the corresponding allylbenzene (Table 3). […] For allylbenzenes, a synergy close to additivity (the cytostatic effect of adjuvant + paclitaxel is almost equal to the sum of their individual contributions) was observed; for PPh3 derivatives, a pronounced increase in the action of paclitaxel is characteristic (the cytostatic effect of adjuvant + paclitaxel is much higher (>) than the sum of their individual contributions). For apiol-PPh3, the most pronounced effect of increasing the activity of paclitaxel was observed (Figure 4b).
Figure 4 Viability of A549 cells in the presence of paclitaxel and allylbenzenes’ PPh3 derivatives in the form of complexes with M-β-CD (1:5 mol/mol). MTT assay. (a) Dose–effect graphs. (b) MTT assay results for 100 nM paclitaxel alone and combined with allylbenzenes’ PPh3 derivatives in the form of complexes with M-β-CD (1:5 mol/mol).
as §2

in vitro = format: cell-based; conditions: human
Procedure: HEK293T are model normal (non-cancer) cells that are widely used to compare the selectivity of cytostatic formulations on cancer cells. According to the MTT test, the concentration of cytostatics of 100 µM causes the death of up to 85% of cancer cells A549 (Figure 4a), while for non-cancer cells (HEK293T), the dying rate is only 15–20%.
as §1, §2

Row | SMILES | −lg Kd (X − γ-CD) [1] | IC50 (A549 cells [2]) [µM] | Synergy Coefficients of Adjuvants and PPh3–Adjuvants with Paclitaxel (A549 cells [3]) | viability at 10 µM (in vitro) [%] | viability at 100 µM (in vitro) [%] | viability at 300 µM (in vitro) [%]
1 | COc1cc(CCC[P+](c2ccccc2)(c2ccccc2)c2ccccc2)c(OC)c(OC)c1OC [Allyltetramethoxybenzene-PPh3] | 2.1 ± 0.2 | 15.8 | 1.3 ± 0.1 | 98 ± 1 | 88 ± 3 | 83 ± 4
2 | COc1cc(CCC[P+](c2ccccc2)(c2ccccc2)c2ccccc2)c(OC)c2c1OCO2 [Apiol-PPh3] | 1.2 ± 0.2 | 1.58 | 2.2 ± 0.2 | 93 ± 2 | 82 ± 3 | 71 ± 2
3 | COc1c(CCC[P+](c2ccccc2)(c2ccccc2)c2ccccc2)cc2c(c1OC)OCO2 [Dillapiol-PPh3] | 1.4 ± 0.3 | 2.51 | 1.5 ± 0.1 | 95 ± 3 | 84 ± 5 | 70 ± 5
4 | COc1cc(CCC[P+](c2ccccc2)(c2ccccc2)c2ccccc2)cc2c1OCO2 [Myristicin-PPh3] | 1.3 ± 0.1 | 5.01 | 1.8 ± 0.3 | 97 ± 3 | 91 ± 2 | 75 ± 3
